Experimental findings from patent US20120157401A1, “METHODS FOR TREATING NEUROFIBROMATOSIS” (PTC Therapeutics, Inc., priority 2009, published 2012) are described below.

The structures appear in SMILES notation.

The first test deals with hypoxia-inducible endogenous VEGF expression. In words: Hypoxia-inducible endogenous VEGF expression ELISA in HeLa cells, dose-response EC50 (Table 3). The class given is cell-based, human. As to conditions: HeLa cells, hypoxic conditions (1% O2), 24-48 hours, VEGF in conditioned media; read-out: ELISA EC50. The procedure, abridged:
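HeLa cells kept 24-48 h under hypoxia (1% O2, 5% CO2, nitrogen balance) with or without compound, e.g. seven concentrations; secreted VEGF in conditioned medium quantified by ELISA against a standard curve. Parallel Cell Titer Glo viability under identical conditions excludes cytotoxicity.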
Background: ELISA stands for enzyme-linked immunosorbent assay.
On to `O=C(Oc1ccc(F)cc1)N1CCc2c([nH]c3ccc(Cl)cc23)C1c1ccc(OCC(O)Cn2ccnn2)cc1` (stereo not drawn) [Compound 1066], for which the EC50 (as a rule, the concentration needed to bring the measured effect to its halfway point) is below 0.008 µM.

Still in this test, the particulars now being: Homo sapiens, HeLa, read-out: ELISA EC50 μM.
Regarding `O=C(COc1ccc(C2c3[nH]c4ccc(Cl)cc4c3CCN2C(=O)Oc2ccc(F)cc2)cc1)N1CCN(CCO)CC1` (stereo not drawn) [Compound 1064], the EC50 was 0.008 to 0.04 µM.
The same measure, in the same setting: the same measure for `O=C(Oc1ccc(Cl)cc1)N1CCc2c([nH]c3ccc(Cl)cc23)[C@@H]1c1ccc(OC[C@H](O)CN2CCOCC2)cc1` [Compound 1070]: below 0.008 µM; for `O=C(Oc1ccc(Cl)cc1)N1CCc2c([nH]c3ccc(Cl)cc23)[C@@H]1c1ccc(OC[C@@H](O)CN2CCOCC2)cc1` [Compound 1071]: below 0.008 µM.
`O=C(Oc1ccccc1)N1CCc2c([nH]c3ccc(Cl)cc23)C1c1ccc(OCCCN2CCOCC2)cc1` (stereo not drawn) [Compound 1075]: the EC50 is 0.008 to 0.04 µM.
Same read-out and setting: the value for `CN1CCN(CCCOc2ccc(C3c4[nH]c5ccc(Cl)cc5c4CCN3C(=O)Oc3ccccc3)cc2)CC1` (stereo not drawn) [Compound 1076] was 0.04 to 0.2 µM.
On to `COc1cc(C2c3[nH]c4ccc(Cl)cc4c3CCN2C(=O)Oc2ccc(Cl)cc2)ccc1OCCN1CCOCC1` (stereo not drawn) [Compound 1092], for which the EC50 was in the range of 0.008 to 0.04 µM.
On the same count and under the same terms, the value for `COc1cc(C2c3[nH]c4ccc(Cl)cc4c3CCN2C(=O)Oc2ccc(Cl)cc2)ccc1OCCCN1CCOCC1` (stereo not drawn) [Compound 1093] was 0.008 to 0.04 µM; that for `COc1cc(C2c3[nH]c4ccc(Cl)cc4c3CCN2C(=O)Oc2ccc(Cl)cc2)ccc1OCCCCN1CCOCC1` (stereo not drawn) [Compound 1094] was 0.008 to 0.04 µM.
Still for that read-out and setting: the same measure for `COc1ccc(C2c3[nH]c4ccc(Cl)cc4c3CCN2C(=O)Oc2ccc(Cl)cc2)cc1OCCN1CCOCC1` (stereo not drawn) [Compound 1095]: 0.2 to 1 µM; for `COc1ccc(C2c3[nH]c4ccc(Cl)cc4c3CCN2C(=O)Oc2ccc(Cl)cc2)cc1OCCCN1CCOCC1` (stereo not drawn) [Compound 1096]: 0.2 to 1 µM; for `COc1ccc(C2c3[nH]c4ccc(Cl)cc4c3CCN2C(=O)Oc2ccc(Cl)cc2)cc1OCCCCN1CCOCC1` (stereo not drawn) [Compound 1097]: 0.04 to 0.2 µM.
Same read-out and setting: the same measure for `O=C(Oc1ccc(Cl)cc1)N1CCc2c([nH]c3ccc(Cl)cc23)C1c1ccc(OCCCN2CCC(CO)C2)cc1` (stereo not drawn) [Compound 1098]: 0.008 to 0.04 µM.
`CN1CCC(COc2ccc(C3c4[nH]c5ccc(Cl)cc5c4CCN3C(=O)Oc3ccc(Cl)cc3)cc2)CC1` (stereo not drawn) [Compound 1099]: the EC50 lay in the range of 0.008 to 0.04 µM.
On the same count and under the same terms, the same measure for `COc1ccc(OC(=O)N2CCc3c([nH]c4ccc(Cl)cc34)C2c2ccc(OCCCN3CCN(C)CC3)cc2)cc1` (stereo not drawn) [Compound 1108]: 0.008 to 0.04 µM; for `CN1CCN(CCCOc2cccc(C3c4[nH]c5ccc(Cl)cc5c4CCN3C(=O)Oc3ccc(F)cc3)c2)CC1` (stereo not drawn) [Compound 1113]: 0.2 to 1 µM; for `O=C(Oc1ccc(F)cc1)N1CCc2c([nH]c3ccc(Cl)cc23)C1c1cccc(OCCCN2CCOCC2)c1` (stereo not drawn) [Compound 1115]: 0.008 to 0.04 µM.
On to `O=C(Oc1ccc(F)cc1)N1CCc2c([nH]c3ccc(Cl)cc23)C1c1cccc(OCCCN2CCSCC2)c1` (stereo not drawn) [Compound 1117], for which the EC50 fell in the range of 0.008 to 0.04 µM.
Still for that read-out and setting: the same measure for `COCCN(CCCOc1cccc(C2c3[nH]c4ccc(Cl)cc4c3CCN2C(=O)Oc2ccc(F)cc2)c1)CCOC` (stereo not drawn) [Compound 1119]: 0.04 to 0.2 µM; for `COCCN(C)CCCOc1cccc(C2c3[nH]c4ccc(Cl)cc4c3CCN2C(=O)Oc2ccc(F)cc2)c1` (stereo not drawn) [Compound 1121]: above 1 µM; for `COc1cc(C2c3[nH]c4ccc(Cl)cc4c3CCN2C(=O)Oc2ccccc2)ccc1OCCCN1CCOCC1` (stereo not drawn) [Compound 1130]: 0.008 to 0.04 µM.
On to `COc1ccc(OC(=O)N2CCc3c([nH]c4ccc(Cl)cc34)C2c2ccc(OCCCN3CCOCC3)c(OC)c2)cc1` (stereo not drawn) [Compound 1131], for which the concentration giving a half-maximal response (EC50) lay within 0.008 to 0.04 µM.
Same read-out and setting: the same measure for `COc1cc(C2c3[nH]c4ccc(Cl)cc4c3CCN2C(=O)Oc2ccc(C)cc2)ccc1OCCCN1CCOCC1` (stereo not drawn) [Compound 1132]: 0.008 to 0.04 µM.

Still in this test, the particulars now being: Homo sapiens; HeLa cells, hypoxic conditions (1% O2), 24-48 hours, VEGF in conditioned media; read-out: ELISA EC50.
As for `O=C(Oc1ccc(Br)cc1)N1CCc2c([nH]c3ccc(Cl)cc23)C1c1ccc(OCC2OCCO2)cc1` (stereo not drawn) [Compound 1054], the EC50 is below 0.008 µM.
On the same count and under the same terms, the same measure for `COc1ccc(OC(=O)N2CCc3c([nH]c4ccc(Cl)cc34)C2c2ccc(OCC3OCCO3)cc2)cc1` (stereo not drawn) [Compound 1055]: 0.008 to 0.04 µM; for `COc1ccc(OC(=O)N2CCc3c([nH]c4ccc(Cl)cc34)C2c2ccc(OCCCO)cc2)cc1` (stereo not drawn) [Compound 1058]: below 0.008 µM.
In the case of `O=C(Oc1ccccc1)N1CCc2c([nH]c3ccc(Cl)cc23)C1c1ccc(OCCCO)cc1` (stereo not drawn) [Compound 1062], the EC50 is below 0.008 µM.
For `O=C(Oc1ccc(F)cc1)N1CCc2c([nH]c3ccc(Cl)cc23)C1c1ccc(OCC(O)Cn2nccn2)cc1` (stereo not drawn) [Compound 1067], the EC50 was in the range of 0.008 to 0.04 µM.
The same measure, in the same setting: the value for `O=C(Oc1ccc(Cl)cc1)N1CCc2c([nH]c3ccc(Cl)cc23)[C@@H]1c1ccc(OCCCn2ccnn2)cc1` [Compound 1068] was below 0.008 µM; that for `O=C(Oc1ccc(Cl)cc1)N1CCc2c([nH]c3ccc(Cl)cc23)[C@H]1c1ccc(OCCCn2ccnn2)cc1` [Compound 1069] was below 0.008 µM.
Consider `O=C(Oc1ccccc1)N1CCc2c([nH]c3ccc(Cl)cc23)C1c1ccc(OCCCn2ccnn2)cc1` (stereo not drawn) [Compound 1077], for which the EC50 fell in the range of 0.008 to 0.04 µM.
As for `O=C(Oc1ccccc1)N1CCc2c([nH]c3ccc(Cl)cc23)C1c1ccc(OCCCn2nccn2)cc1` (stereo not drawn) [Compound 1078], the EC50 was 0.008 to 0.04 µM.
As to `COc1cc(C2c3[nH]c4ccc(Cl)cc4c3CCN2C(=O)Oc2ccc(Cl)cc2)ccc1OCCn1cncn1` (stereo not drawn) [Compound 1086], the EC50 was 0.008 to 0.04 µM.
Same read-out and setting: the same measure for `COc1cc(C2c3[nH]c4ccc(Cl)cc4c3CCN2C(=O)Oc2ccc(Cl)cc2)ccc1OCCCn1cncn1` (stereo not drawn) [Compound 1087]: 0.008 to 0.04 µM; for `COc1cc(C2c3[nH]c4ccc(Cl)cc4c3CCN2C(=O)Oc2ccc(Cl)cc2)ccc1OCCCCn1cncn1` (stereo not drawn) [Compound 1088]: 0.008 to 0.04 µM.
The same measure, in the same setting: the same measure for `COc1ccc(C2c3[nH]c4ccc(Cl)cc4c3CCN2C(=O)Oc2ccc(Cl)cc2)cc1OCCn1cncn1` (stereo not drawn) [Compound 1089]: 0.2 to 1 µM.
On to `COc1ccc(C2c3[nH]c4ccc(Cl)cc4c3CCN2C(=O)Oc2ccc(Cl)cc2)cc1OCCCn1cncn1` (stereo not drawn) [Compound 1090], for which the 50% effective concentration (EC50) lay in the range of 0.2 to 1 µM.
For the compound `COc1ccc(C2c3[nH]c4ccc(Cl)cc4c3CCN2C(=O)Oc2ccc(Cl)cc2)cc1OCCCCn1cncn1` (stereo not drawn) [Compound 1091], the EC50 is 0.2 to 1 µM.
As for `O=C(Oc1ccc(F)cc1)N1CCc2c([nH]c3ccc(Cl)cc23)C1c1ccc(OCCCO)cc1` (stereo not drawn) [Compound 1110], the half-maximal effective concentration (EC50) was below 0.008 µM.
Still for that read-out and setting: the value for `O=C(Oc1ccc(Cl)cc1)N1CCc2c([nH]c3ccc(Cl)cc23)C1c1ccc(OCCCO)cc1` (stereo not drawn) [Compound 1111] was below 0.008 µM.
Same read-out and setting: the value for `O=C(Oc1ccc(F)cc1)N1CCc2c([nH]c3ccc(Cl)cc23)C1c1cccc(OCCCn2ccnc2)c1` (stereo not drawn) [Compound 1123] was 0.04 to 0.2 µM; that for `O=C(Oc1ccc(F)cc1)N1CCc2c([nH]c3ccc(Cl)cc23)C1c1cccc(OCCCn2ccnn2)c1` (stereo not drawn) [Compound 1125] was 0.2 to 1 µM; that for `O=C(Oc1ccc(Cl)cc1)N1CCc2c([nH]c3ccc(Cl)cc23)[C@H]1c1ccc(OCCCCl)cc1` [Compound 1126] was 0.2 to 1 µM.
For `O=C(Oc1ccc(Cl)cc1)N1CCc2c([nH]c3ccc(Cl)cc23)[C@H]1c1ccc(OCCCn2nccn2)cc1` [Compound 1127], the EC50 is 0.04 to 0.2 µM.
With `O=C(Oc1ccc(Cl)cc1)N1CCc2c([nH]c3ccc(Cl)cc23)[C@@H]1c1ccc(OCCCCl)cc1` [Compound 1128], the EC50 is below 0.008 µM.
With `O=C(Oc1ccc(Cl)cc1)N1CCc2c([nH]c3ccc(Cl)cc23)[C@@H]1c1ccc(OCCCn2nccn2)cc1` [Compound 1129], the EC50 was below 0.008 µM.
Same read-out and setting: the value for `COc1ccc(OC(=O)N2CCc3c([nH]c4ccc(Cl)cc34)C2c2ccc(OCCCn3nccn3)cc2)cc1` (stereo not drawn) [Compound 1134] was below 0.008 µM; that for `COc1cc(C2c3[nH]c4ccc(Cl)cc4c3CCN2C(=O)Oc2ccccc2)ccc1OCCCn1ccnn1` (stereo not drawn) [Compound 1144] was 0.04 to 0.2 µM; that for `COc1cc(C2c3[nH]c4ccc(Cl)cc4c3CCN2C(=O)Oc2ccccc2)ccc1OCCCn1nccn1` (stereo not drawn) [Compound 1145] was 0.008 to 0.04 µM.
With `COc1cc(C2c3[nH]c4ccc(Cl)cc4c3CCN2C(=O)Oc2ccccc2)ccc1OCCCn1cncn1` (stereo not drawn) [Compound 1150], the EC50 lay within 0.008 to 0.04 µM.
Regarding `COc1ccc(OC(=O)N2CCc3c([nH]c4ccc(Cl)cc34)C2c2ccc(OCCCn3cncn3)c(OC)c2)cc1` (stereo not drawn) [Compound 1151], the EC50 lay within 0.04 to 0.2 µM.
Same read-out and setting: the value for `COc1cc(C2c3[nH]c4ccc(Cl)cc4c3CCN2C(=O)Oc2ccc(C)cc2)ccc1OCCCn1cncn1` (stereo not drawn) [Compound 1152] was 0.008 to 0.04 µM; that for `O=C(Oc1ccc(F)cc1)N1CCc2c([nH]c3ccc(Cl)cc23)C1c1cccc(OCCCn2cncn2)c1` (stereo not drawn) [Compound 1155] was 0.04 to 0.2 µM; that for `C=CCOc1ccc([C@H]2c3[nH]c4ccc(Cl)cc4c3CCN2C(=O)Oc2ccc(Cl)cc2)cc1` [Compound 1159] was below 0.008 µM.
Consider `O=C(Oc1ccc(Cl)cc1)N1CCc2c([nH]c3ccc(Cl)cc23)[C@@H]1c1ccc(O)cc1` [Compound 1160], for which the EC50 is below 0.008 µM.
Turning to `CC1(C)OC[C@H](CCOc2ccc(C3c4[nH]c5ccc(Cl)cc5c4CCN3C(=O)Oc3ccc(Cl)cc3)cc2)O1` (stereo partly drawn) [Compound 1162], the EC50 is below 0.008 µM.
Still for that read-out and setting: the value for `CC1(C)OC[C@H](CCOc2ccc(C3c4[nH]c5ccc(Cl)cc5c4CCN3C(=O)Oc3ccccc3)cc2)O1` (stereo partly drawn) [Compound 1168] was below 0.008 µM; that for `CC1(C)OC[C@H](CCOc2ccc(C3c4[nH]c5ccc(Cl)cc5c4CCN3C(=O)Oc3ccc(F)cc3)cc2)O1` (stereo partly drawn) [Compound 1169] was below 0.008 µM; that for `Cc1ccc(OC(=O)N2CCc3c([nH]c4ccc(Cl)cc34)C2c2ccc(OCC[C@H]3COC(C)(C)O3)cc2)cc1` (stereo partly drawn) [Compound 1170] was below 0.008 µM.
Still for that read-out and setting: the same measure for `COc1ccc(OC(=O)N2CCc3c([nH]c4ccc(Cl)cc34)C2c2ccc(OCC[C@H]3COC(C)(C)O3)cc2)cc1` (stereo partly drawn) [Compound 1171]: below 0.008 µM.
